“And” between values parts separate entries of the source, which are not always exact repeats. Equal entries are not always repeated.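 Step 1: Grow cells in 96-well plates. Step 2: Expose to compound for 48 hours at 5 concentrations. Step 3: Interpolate endpoints linearly; if unreached, use highest concentration. GI50: concentration for 50% inhibition of growth. Definition used: TGI = concentration required for complete inhibition of growth.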
Experiments:
Assay in all cases: NCI tumour cell line growth inhibition, 48 h
SK-OV-3 ovarian = test system: SK-OV-3 ovarian
SW-620 colon = test system: SW-620 colon
SNB-75 CNS = test system: SNB-75 CNS
UACC-62 melanoma = test system: UACC-62 melanoma
IGROV1 ovarian = test system: IGROV1 ovarian
SK-MEL-28 melanoma = test system: SK-MEL-28 melanoma
M14 melanoma = test system: M14 melanoma
HT29 colon = test system: HT29 colon
BT-549 breast = test system: BT-549 breast
HS 578T breast = test system: HS 578T breast

Compound: O=C(CCn1[nH]c(=O)c(Cl)c(Cl)c1=O)NNC(=O)C[n+]1ccccc1
- TGI (SK-OV-3 ovarian): > 100 µM
- TGI (SW-620 colon): > 100 µM
- TGI (SNB-75 CNS): > 100 µM
- TGI (UACC-62 melanoma): > 100 µM
- TGI (IGROV1 ovarian): > 100 µM
- TGI (SK-MEL-28 melanoma): > 100 µM
- TGI (M14 melanoma): > 100 µM
- TGI (HT29 colon): > 100 µM

Compound: CCCCCCCCCC(=O)OCC1OC(n2cc(F)c(=O)[nH]c2=O)C(NC(=O)OCc2ccccc2)C(OC(=O)CCCCCCCCC)C1O (centres undefined)
- TGI (SK-OV-3 ovarian): > 100 µM
- TGI (SW-620 colon): > 100 µM
- TGI (SNB-75 CNS): > 100 µM
- TGI (UACC-62 melanoma): > 100 µM
- TGI (IGROV1 ovarian): > 100 µM
- TGI (SK-MEL-28 melanoma): > 100 µM
- TGI (M14 melanoma): > 100 µM
- TGI (HT29 colon): 35 µM

Compound: Nc1ccc(-c2cccs2)cc1NC(=O)c1ccc(CCCC(=O)Nc2ccc(C3CC3N)cc2)cc1 (centres undefined)
- GI50 (SK-OV-3 ovarian): 4.37 µM
- TGI (SK-OV-3 ovarian): 37.1 µM
- GI50 (BT-549 breast): 2690 nM
- TGI (BT-549 breast): > 100 µM
- GI50 (SNB-75 CNS): 1650 nM
- TGI (SNB-75 CNS): 4.27 µM
- GI50 (UACC-62 melanoma): 1.28 µM
- TGI (UACC-62 melanoma): 5.47 µM
- GI50 (IGROV1 ovarian): 4.8 µM
- TGI (IGROV1 ovarian): > 100 µM
- GI50 (HS 578T breast): 7.93 µM
- TGI (HS 578T breast): > 100 µM

Compound: C=C1CC2CC(O)CC(C1)C2 (centres undefined)
- TGI (SK-OV-3 ovarian): > 100 µM
- TGI (SW-620 colon): > 100 µM
- TGI (SNB-75 CNS): > 100 µM
- TGI (UACC-62 melanoma): > 100 µM
- TGI (IGROV1 ovarian): > 100 µM
- TGI (SK-MEL-28 melanoma): > 100 µM
- TGI (M14 melanoma): > 100 µM
- TGI (HT29 colon): > 100 µM

Compound: CSc1snc2sc3c(Cl)nnnc3c12
- TGI (SK-OV-3 ovarian): 33.3 µM
- TGI (SW-620 colon): 16.1 µM
- TGI (SNB-75 CNS): 23.7 µM
- TGI (UACC-62 melanoma): 29.2 µM
- TGI (IGROV1 ovarian): 37.3 µM
- TGI (SK-MEL-28 melanoma): 23.2 µM
- TGI (M14 melanoma): 26.3 µM
- TGI (HT29 colon): 19.6 µM

Compound: O=C(CC(=O)c1cccc2ccccc12)C(=O)NC1C2CC3CC(C2)CC1C3 (centres undefined)
- TGI (SK-OV-3 ovarian): > 100 µM
- TGI (SW-620 colon): > 100 µM
- TGI (UACC-62 melanoma): > 100 µM
- TGI (IGROV1 ovarian): > 100 µM
- TGI (M14 melanoma): > 100 µM
- TGI (HT29 colon): > 100 µM

Compound: CCCCCCCCCCCCCCCCCCOCC(CCP(=O)(CP(=O)(O)O)Oc1ccccc1)OCCCCCCCCCCCCCCCCCC (centres undefined)
- TGI (SK-OV-3 ovarian): > 100 µM
- TGI (SW-620 colon): > 100 µM
- TGI (SNB-75 CNS): > 100 µM
- TGI (UACC-62 melanoma): > 100 µM
- TGI (IGROV1 ovarian): > 100 µM
- TGI (SK-MEL-28 melanoma): > 100 µM
- TGI (M14 melanoma): > 100 µM
- TGI (HT29 colon): > 100 µM
- TGI (HS 578T breast): > 100 µM

Compound: Nc1n[n+](-c2ccccc2)no1
- TGI (SK-OV-3 ovarian): > 100 µM
- TGI (SW-620 colon): > 100 µM
- TGI (UACC-62 melanoma): 89.6 µM
- TGI (IGROV1 ovarian): > 100 µM
- TGI (M14 melanoma): > 100 µM
- TGI (HT29 colon): > 100 µM

Compound: CC(=O)O[C@@]1(C)[C@@H](C)C(=O)O[C@@H]2CCN3CC=C(COC(=O)[C@]1(C)O)[C@H]23
- TGI (SW-620 colon): > 100 µM
- TGI (SNB-75 CNS): > 100 µM
- TGI (UACC-62 melanoma): > 100 µM
- TGI (IGROV1 ovarian): > 100 µM
- TGI (SK-MEL-28 melanoma): > 100 µM
- TGI (M14 melanoma): > 100 µM
- TGI (HT29 colon): > 100 µM

Compound: COc1ccc2oc(C(=O)O)c3c2c1CCC3CCC(=O)O (centres undefined)
- TGI (SK-OV-3 ovarian): > 100 µM
- TGI (SW-620 colon): > 100 µM
- TGI (SNB-75 CNS): > 100 µM
- TGI (UACC-62 melanoma): > 100 µM
- TGI (IGROV1 ovarian): > 100 µM
- TGI (SK-MEL-28 melanoma): > 100 µM
- TGI (M14 melanoma): > 1 µM
- TGI (HT29 colon): > 100 µM

Compound: CC1(C)NCCC[C@]2(C)[C@H]3CC[C@@H]4[C@H]5[C@H](C(=O)/C=C/c6ccccn6)CC[C@]5(CO)CC[C@@]4(C)[C@]3(C)CC[C@@H]12
- GI50 (SK-OV-3 ovarian): 12.9 µM
- TGI (SK-OV-3 ovarian): 30 µM
- GI50 (BT-549 breast): 2270 nM
- TGI (BT-549 breast): 11 µM
- GI50 (SW-620 colon): 1.82 µM
- TGI (SW-620 colon): 3.49 µM
- GI50 (UACC-62 melanoma): 4 µM
- TGI (UACC-62 melanoma): 17.2 µM
- GI50 (SK-MEL-28 melanoma): 3.75 µM
- TGI (SK-MEL-28 melanoma): 15.7 µM
- GI50 (M14 melanoma): 1810 nM
- TGI (M14 melanoma): 3.56 µM
- GI50 (HT29 colon): 2.85 µM
- TGI (HT29 colon): 11.3 µM
- GI50 (HS 578T breast): 4.39 µM
- TGI (HS 578T breast): 23.6 µM

Compound: CCOC(=O)c1cnc2sc3ccc4ccccc4c3n2c1=O
- TGI (SK-OV-3 ovarian): > 100 µM
- TGI (SW-620 colon): > 100 µM
- TGI (SNB-75 CNS): > 100 µM
- TGI (UACC-62 melanoma): > 100 µM
- TGI (IGROV1 ovarian): > 100 µM
- TGI (SK-MEL-28 melanoma): > 100 µM
- TGI (M14 melanoma): > 100 µM
- TGI (HT29 colon): > 100 µM

Compound: O=C(N/N=C1\C(=O)N(c2nccs2)C(=O)C(=O)C1c1nc2ccccc2s1)c1ccccc1O (centres undefined)
- TGI (SK-OV-3 ovarian): > 100 µM
- TGI (SW-620 colon): > 100 µM
- TGI (SNB-75 CNS): > 100 µM
- TGI (UACC-62 melanoma): > 100 µM
- TGI (IGROV1 ovarian): > 100 µM
- TGI (SK-MEL-28 melanoma): > 100 µM
- TGI (M14 melanoma): > 100 µM
- TGI (HT29 colon): > 100 µM

Compound: Cc1[nH]c(=O)[nH]c1C(=O)c1ccc(-n2ccnc2)cc1
- TGI (SK-OV-3 ovarian): > 100 µM
- TGI (SW-620 colon): > 100 µM
- TGI (SNB-75 CNS): > 100 µM
- TGI (UACC-62 melanoma): > 100 µM
- TGI (IGROV1 ovarian): > 100 µM
- TGI (SK-MEL-28 melanoma): > 100 µM
- TGI (M14 melanoma): > 100 µM
- TGI (HT29 colon): > 100 µM

Compound: N#CC1(C#N)C2C=CC(c3coc4cccc2c34)C1(C#N)C#N (centres undefined)
- TGI (SK-OV-3 ovarian): 31.7 µM
- TGI (SW-620 colon): 3.32 µM
- TGI (SNB-75 CNS): 35.3 µM
- TGI (UACC-62 melanoma): 24.4 µM
- TGI (IGROV1 ovarian): 35.9 µM
- TGI (SK-MEL-28 melanoma): 10.8 µM
- TGI (M14 melanoma): 25.3 µM
- TGI (HT29 colon): 41.6 µM

Compound: CC(C)=CCC/C(C)=C\CCC1(C)OC(=O)C2CC21 (centres undefined)
- TGI (BT-549 breast): > 100 µM
- GI50 (SW-620 colon): 84.1 µM and 33.8 µM
- TGI (SW-620 colon): > 100 µM
- TGI (SNB-75 CNS): > 100 µM
- GI50 (UACC-62 melanoma): > 100 µM and 34.4 µM
- TGI (UACC-62 melanoma): > 100 µM
- GI50 (IGROV1 ovarian): > 100 µM and 18.2 µM
- TGI (IGROV1 ovarian): > 100 µM and 37.2 µM
- GI50 (SK-MEL-28 melanoma): > 100 µM and 37.5 µM
- TGI (SK-MEL-28 melanoma): > 100 µM
- GI50 (HT29 colon): 72.8 µM and 34.1 µM
- TGI (HT29 colon): > 100 µM
- GI50 (HS 578T breast): > 100 µM and 36.5 µM
- TGI (HS 578T breast): > 100 µM

Compound: CCc1cc(CCC(=O)Nc2ccccc2[N+](=O)[O-])[nH]c(=S)n1
- TGI (SK-OV-3 ovarian): > 100 µM
- TGI (SW-620 colon): > 100 µM
- TGI (UACC-62 melanoma): > 100 µM
- TGI (IGROV1 ovarian): > 100 µM
- TGI (SK-MEL-28 melanoma): > 100 µM
- TGI (M14 melanoma): > 100 µM
- TGI (HT29 colon): > 100 µM
